Among the data in ChEMBL document CHEMBL5543135, “Design and Synthesis of Novel Macrocyclic Derivatives as Potent and Selective Cyclin-Dependent Kinase 7 Inhibitors” (J Med Chem, 2024) are half-life values, retold here.

Series [1] in a line: in vitro. The following applies: human, liver microsomes.
Series [2] in a line: in vitro. The following applies: mouse, liver microsomes. Background: Liver microsomes are vesicles of endoplasmic reticulum, rich in cytochrome P450 enzymes.

What is called half-life is how long it takes for the measured level to halve. Regarding `CC(C)c1cnn2c(NCc3ccccc3)cc(NC[C@H]3CCNC[C@@H]3O)nc12` [CT-7001], the results for the half-life at 1 h, 1 µM in the series “in vitro [1]” and in “in vitro [2]” were > 186 min and 105 min, respectively.

Consider `COC1CCCC2(CCNCC2)CNc2nc(n3ncc(C(C)C)c3n2)NCc2ccccc2OC1` (centres undefined), for which the half-life at 1 h, 1 µM in the series “in vitro [1]” was 16.9 min; in “in vitro [2]”, 27.7 min.
